Test results: patent US7057059B2, “Tumor-inhibiting platinum (II) oxalate complexes” (Faustus Forschungs CIE. Translational Cancer Research GmbH, priority 2002, dated 2006)

Tests used:
[1] = test system: 41M (adenocarcinoma of the ovary); assay type: cell-based; conditions: cell line 41M, MTT, 96 h
Method: (§1) The cytotoxicity of the compounds according to Examples 1 and 2 was tested by using the following cell lines 41M, CH1 and SW480. In this respect the following method was selected:
(§2) In this regard, adherent monolayer cultures of the following cell lines were used: 41M (adenocarcinoma of the ovary), CH1 (adenocarcinoma of the ovary), SW480 (adenocarcinoma of the colon; primary resistance to cisplatinum).
(§3) Culture conditions: The cells were kept in 75 cm^2 culture flasks at 37° C. and moist atmosphere (5% CO2). Minimal Essential Medium (MEM) was used as culture medium, with 2 mmol/l I-glutamine, 1 mmol/l sodium pyruvate, 50 IU/ml penicillin, 50 μg/ml streptomycin and 10% heat-inactivated foetal bovine serum.
(§4) Test execution: Cell suspensions were obtained from subconfluent cultures by treatment with trypsin and seeded in defined density in 96-well microculture plates. The initial density was selected such that for the complete test duration an exponential growth of the cultures was guaranteed. For the cell line 41M this was 4·10^4 cells/ml, for CH1 1.25·10^4 cells/ml and for SW480 1.5·10^4 cells/ml. The plates were incubated for 24 h under standard conditions to achieve cell establishment. Then the compounds to be tested were introduced in ten-staged concentration series in the culture medium (without addition of organic solvents or dissolving agents) into the plates and left for the complete test duration (96 h). Per experiment each concentration was tested on eight microcultures of the same cell line. At the end of the experiment the respective number of living cells in the microculture was determined spectrophotometrically (at 550 nm) using the MTT-dye reaction in relationship to the untreated control cultures. Equally, the number of living cells in microculture plates started in parallel was quantified at the start of the active substance exposition. […] The mean values were used for the evaluation.

[2] = test system: CH1 (adenocarcinoma of the ovary); assay type: cell-based; conditions: cell line CH1, MTT, 96 h
Method: as §1, §2, §3, §4

[3] = test system: SW480 (adenocarcinoma of the colon; primary resistance to cisplatinum); assay type: cell-based; conditions: cell line SW480, MTT, 96 h
Method: as §1, §2, §3, §4

[4] = test system: Female, tumor-bearing B6D2F1 mouse; experiment: In vivo efficacy study: survivors on day 14 after tumor transplantation; conditions: for Survivors/total number: Qd×5, day 14 after tumor transplantation; for animals still alive on day 14: highest dosage level
From the text: Female, tumor-bearing B6D2F1 mouse, day 14 after tumor transplantation.

[5] = MTD study on animals free of tumors; conditions: in vivo
animals free of tumors = experiment: MTD study on animals free of tumors; conditions: on day 5, at MTD 10 mg/kg Qd×5
leukaemia L1210 = experiment: L1210 leukaemia in the mouse; assay type: in vivo; conditions: for effectiveness (survival to the end of the experiment): 3 mg/kg and 6 mg/kg, 21 day study
From the text: FIG. 4 is a bar graph of the results of the effectiveness of (4-methyl-trans-chxn)Pt(ox) in comparison to I-OHP in leukaemia L1210 in the mouse at various dosages over a 21 day study.

| Molecule | GL50 [1] | IC50 [1] | TGI [1] | Gl50 [2] | IC50 [2] | TGI [2] | Gl50 [3] | IC50 [3] | TGI [3] | animals still alive on day 14 [4] | MTD at 5 days [5] | weight loss (animals free of tumors) | effectiveness (survival to the end of the experiment) (leukaemia L1210) | further results |
| --- | --- | --- | --- | --- | --- | --- | --- | --- | --- | --- | --- | --- | --- | --- |
| O=C(O)C(=O)O.[NH-][C@@H]1CCCC[C@H]1[NH-].[Pt+2] [[(trans-chxn)Pt(ox)]] | 0.99 µM | 4200 nM | 5000 nM | 0.54 µM | 700 nM | 2000 nM | 0.8 µM | 1600 nM | 21800 nM | – | – | – | – | – |
| CCC1CCC2[NH][Pt]3([NH]C2C1)[O]C(=O)C(=O)[O]3 (stereo not drawn) [[(4-ethyl-trans-chxn)Pt(ox)], (SP-4-3)-(4-ethyl-trans-cyclohexane-1,2-diamine)oxalatoplatinum (II)] | – | – | – | – | – | – | – | – | – | 6/6 | 10 mg/kg | 5% | – | Survivors/total number ([4]; dose 1.34 mg/kg): 5/6; Survivors/total number ([4]; dose 2.68 mg/kg): 6/6; Survivors/total number ([4]; dose 5.35 mg/kg): 6/6 |
| (SP-4-3)-(4-methyl-trans-cyclohexane-1,2-diamine)oxalatoplatinum (II) [[(4-methyl-trans-chxn)Pt(ox)]] | 0.91 ± 0.16 µM | 2400 nM | 4200 ± 2600 nM | 0.22 µM | 340 nM | 930 nM | 0.31 µM | 650 nM | 9000 nM | 4/6 | – | 5% | all animals survived the experiment to the end | Survivors/total number ([4]; dose 1.30 mg/kg): 6/6; Survivors/total number ([4]; dose 2.60 mg/kg): 5/6; Survivors/total number ([4]; dose 5.20 mg/kg): 4/6; tolerance at high dosage (leukaemia L1210; 24 mg/kg, in comparison to I-OHP): better tolerance |
| O=C(O)C(=O)O.[NH-]C1CCCCC1[NH-].[Pt+2] (stereo not drawn) [[(trans-S,S-chxn)Pt(ox)]] | 1.11 µM | 3200 nM | 4400 nM | 1.14 µM | 1500 nM | 4200 nM | 2.2 µM | 4200 nM | 47800 nM | – | – | – | – | – |
| O=C1[O][Pt]2([NH]C3CCCC[C@H]3[NH]2)[O]C1=O (stereo partly shown) [Oxaliplatinum, oxaliplatinum] | – | – | – | – | – | – | – | – | – | death of all animals | 5 mg/kg | – | deaths already occurred | Survivors/total number ([4]; dose 1.25 mg/kg): 5/6; Survivors/total number ([4]; dose 2.50 mg/kg): 6/6; Survivors/total number ([4]; dose 5.00 mg/kg): 0/6 |
